Measurements taken from US11634412B2, “3-phosphoglycerate dehydrogenase inhibitors and uses thereof” (Raze Therapeutics, Inc., priority 2016, dated 2023).

These molecules were tested against T1, Full length (FL) 3-Phosphoglycerate Dehydrogenase (PHGDH) (Homo sapiens, UniProt O43175) (assay: Full length (FL) PHGDH Diaphorase coupled assay (20 uM NAD)). Conditions: full-length PHGDH 10 nM, 30° C. 60 minutes, resorufin fluorescence.
T1 construct: Full length (FL) 3-Phosphoglycerate Dehydrogenase (PHGDH) Diaphorase coupled assay (500 uM NAD)
T1 sequence (O43175 1-533): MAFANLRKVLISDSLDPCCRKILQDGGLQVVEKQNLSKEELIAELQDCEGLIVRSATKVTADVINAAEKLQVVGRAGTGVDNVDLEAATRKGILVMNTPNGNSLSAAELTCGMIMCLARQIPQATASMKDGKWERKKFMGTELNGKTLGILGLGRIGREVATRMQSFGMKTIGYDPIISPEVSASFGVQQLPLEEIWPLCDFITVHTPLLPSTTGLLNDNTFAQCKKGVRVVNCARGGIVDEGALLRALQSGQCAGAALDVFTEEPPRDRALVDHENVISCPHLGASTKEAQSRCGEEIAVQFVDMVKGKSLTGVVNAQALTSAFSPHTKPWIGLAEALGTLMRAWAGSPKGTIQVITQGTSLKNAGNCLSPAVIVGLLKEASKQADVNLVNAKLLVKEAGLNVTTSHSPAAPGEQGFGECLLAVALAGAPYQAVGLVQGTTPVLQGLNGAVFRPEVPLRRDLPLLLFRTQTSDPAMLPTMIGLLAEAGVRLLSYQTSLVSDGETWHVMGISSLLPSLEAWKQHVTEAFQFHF
Type: biochemical
Procedure: PHGDH activity was determined by detecting the NADH produced during the reaction. Diaphorase was used to catalyze the oxidation of NADH with the concomitant reduction of resazurin to the fluorescent product resorufin. Resorufin fluorescence quantitatively reflected the production of NADH by the PHGDH reaction. To drive the forward reaction, two enzymes in the serine synthesis pathway subsequent to PHGDH, Phosphoserine aminotransferase (PSAT1) and phosphoserine phosphatase (PSPH) were also added to the reaction.

SMILES | IC50
Cn1c(C(=O)NC2(c3ccc(C(=O)O)cc3)CCOC2)cc2c(Cl)c(Cl)ccc21 (racemic) [I-136 e145, (±)-4-[3-[(4,5-Dichloro-1-methyl-indole-2-carbonyl)amino]tetrahydrofuran-3-yl]benzoic acid] | 1 to 1000 nM
CC(=O)NS(=O)(=O)N1CCC(NC(=O)c2cc3c(Cl)c(Cl)ccc3n2C)(c2cccc(N)c2)CC1 [I-145 e13] | 5000 to 10000 nM
CNC(=O)NS(=O)(=O)N1CCCC(NC(=O)c2cc3c(Cl)c(Cl)ccc3n2C)(c2ccc(C(=O)O)cc2)C1 (racemic) [I-140 e15] | 1 to 1000 nM
Cn1c(C(=O)N[C@]2(c3ccc(C(=O)O)cc3)CCOC2)cc2c(Cl)c(Cl)ccc21 (single isomer, unassigned; peak 1) [I-133 or I-132 e146 peak 1] | 1 to 1000 nM
Cn1c(C(=O)NC2(c3ccccc3)CCN(S(=O)(=O)Nc3cnccn3)CC2)cc2c(Cl)c(Cl)ccc21 [I-152 e3] | 1000 to 5000 nM
Cn1c(C(=O)NC2(c3ccc(C(N)=O)cc3)CCOC2)cc2c(Cl)c(Cl)ccc21 (racemic) [I-131 e144, (±)-N-[3-(4-Carbamoylphenyl)tetrahydrofuran-3-yl]-4,5-dichloro-1-methyl-indole-2-carboxamide] | 1000 to 5000 nM
CC(=O)NS(=O)(=O)N1CC(NC(=O)c2cc3c(Cl)c(Cl)ccc3n2C)(c2ccccc2)C1 [I-148 e9] | 5000 to 10000 nM
Cn1c(C(=O)N[C@@]2(c3ccc(C(=O)O)cc3)CCOC2)cc2c(Cl)c(Cl)ccc21 (single isomer, unassigned; peak 2) [I-132 or I-133 e147 peak 2] | 1 to 1000 nM
Cn1c(C(=O)NC2(c3ccc(C(=O)O)cc3)CCOC2)cc2c(Cl)c(Cl)ccc21 (racemic) [I-137 e141, (±)-4-[3-[(4,5-Dichloro-1-methyl-indole-2-carbonyl)amino]tetrahydrofuran-3-yl]benzoic acid] | 1 to 1000 nM
